Test [1] concerns spindle assembly checkpoint. In words: SAC-Formation - Nocodazole-Induced Assay. Conditions: Homo sapiens; HeLa cells, nocodazole 0.1 μg/ml, 24 h, phosphorylated histone H3 on serine 10. In kind it is cell-based. An excerpt: The spindle assembly checkpoint assures the proper segregation of chromosomes during mitosis. Upon entry into mitosis, chromosomes begin to condensate which is accompanied by the phosphorylation of histone H3 on serine 10. Dephosphorylation of histone H3 on serine 10 begins in anaphase and ends at early telophase. Accordingly, phosphorylation of histone H3 on serine 10 can be utilized as a marker of cells in mitosis. Nocodazole is a microtubule destabilizing substance. Paclitaxel is a microtubule stabilizing compound. Thus, nocodazole as well as paclitaxel interfere with microtubule dynamics and mobilize the spindle assembly checkpoint. […] The mitotic breakthrough can be detected by the decrease of cells with phosphorylation of histone H3 on serine 10. This decline is used as a marker to determine the capability of compounds of the present invention to induce a mitotic breakthrough. The typical morphological alteration of nuclei with a prematurely completed mitosis after SAC-inhibition can be monitored via image analysis routines supporting those findings.
The nocodazole and paclitaxel variations were used to focus on compounds that are capable of inhibiting a SAC induced by both microtubule destabilization as well as microtubule stabilization. When SAC inducing agents and compounds are given simultaneously, inhibitors that effectively block the SAC during formation or abrogation are identified. When cells are incubated with a SAC inducing agent and the SAC interfering compound is given after a defined time, inhibitors are identified that effectively block SAC abrogation.
Cultivated cells of the human cervical tumor cell line HeLa (ATCC CCL-2) were plated at a density of 1000 cells/well in a 1536-well microtiter plate in 2 μl PAA Ham's F12 Medium supplemented with 1% (v/v) glutamine, 1% (v/v) penicillin, 1% (v/v) streptomycin and 10% (v/v) fetal calf serum. After incubation overnight at 37° C., 10 μl/well nocodazole at a final concentration of 0.1 μg/ml were added to cells. Test compounds solubilized in dimethyl sulfoxide (DMSO) were added at various concentrations (0 μM, as well as in the range of 0.005 μM-20 μM; the final concentration of the solvent DMSO was 0.5% (v/v)). Cells were incubated for 24 h at 37° C. in the presence of test compounds in combination with nocodazole. Thereafter, cells were fixed in 4% (v/v) paraformaldehyde in phosphate buffered saline (PBS) at 4° C. overnight then permeabilized in 0.1% (v/v) Triton X™ 100 in PBS at room temperature for 20 min and blocked in 0.5% (v/v) bovine serum albumin (BSA) in PBS at room temperature for 15 min. After washing with PBS, 5 μl/well antibody solution (anti-phospho-histone H3 clone 3H10, FITC; Millipore, Cat #16-222; 1:1000 dilution) was added to cells, which were incubated for 2 h at room temperature. Afterwards, cells were washed with PBS and 5 μl/well solution of HOECHST 33342 dye (5 μg/ml) was added to cells and cells were incubated 15 min at room temperature in the dark. Cells were washed twice with PBS then covered with PBS and stored at 4° C. until analysis. Images were acquired with a PERKIN ELMER OPERA™ High-Content Analysis reader. Images were analyzed with image analysis software MetaXpress™ from Molecular devices utilizing the Mitotic Index application module. In this assay both labels HOECHST 33342 and phosphorylated Histone H3 on serine 10 were measured. HOECHST 33342 labels the DNA and is used to count the cell number. The staining of phosphorylated Histone H3 on serine 10 determines the number of mitotic cells. […] Otherwise cells were arrested at G2/M phase of the cell cycle progression. The raw assay data were further analyzed by four-parametric hill equation using Genedata's Assay Analyzer and Condoseo software.

The target in the next test is human Bub1 (Homo sapiens (Human), UniProt O43683). Description: Bub1 kinase assay (TR-FRET). It counts as biochemical. As to conditions: 10 μM ATP; read-out: Bub1 avg (IC50 [mol/l]). An excerpt: Bub1-inhibitory activity of compounds of the present invention was quantified employing the Bub1 TR-FRET assay as described in the following paragraphs.
Chain of human Bub1 (O43683 704-1085): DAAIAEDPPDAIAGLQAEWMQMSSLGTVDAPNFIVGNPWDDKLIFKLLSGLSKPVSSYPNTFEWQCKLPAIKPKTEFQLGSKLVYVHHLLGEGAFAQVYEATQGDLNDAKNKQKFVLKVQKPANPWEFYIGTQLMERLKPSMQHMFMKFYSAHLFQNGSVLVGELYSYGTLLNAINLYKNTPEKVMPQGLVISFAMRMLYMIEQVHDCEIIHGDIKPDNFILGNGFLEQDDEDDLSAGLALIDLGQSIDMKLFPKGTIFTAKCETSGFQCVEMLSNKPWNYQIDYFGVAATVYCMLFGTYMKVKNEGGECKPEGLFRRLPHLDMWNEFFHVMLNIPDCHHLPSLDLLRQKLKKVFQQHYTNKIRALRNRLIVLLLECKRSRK
N-terminally His6-tagged recombinant catalytic domain of human Bub1 (amino acids 704-1085), expressed in insect cells (Hi5) and purified by Ni-NTA affinity chromatography and subsequent size exclusion chromatography, was used as enzyme. As substrate for the kinase reaction the biotinylated peptide biotin-Ahx-VLLPKKSFAEPG (C-terminus in amid form) was used which can be purchased e.g. form the company Biosyntan (Berlin, Germany).
For the assay 50 nl of a 100 fold concentrated solution of the test compound in DMSO was pipetted into a black low volume 384 well microtiter plate (Greiner Bio-One, Frickenhausen, Germany), 2 μl of a solution of Bub1 in aqueous assay buffer [50 mM Tris/HCl pH 7.5, 10 mM magnesium chloride (MgCl2), 200 mM potassium chloride (KCl), 1.0 mM dithiothreitol (DTT), 0.1 mM sodium ortho-vanadate, 1% (v/v) glycerol, 0.01% (w/v) bovine serum albumine (BSA), 0.005% (v/v) Trition X-100 (Sigma), 1× Complete EDTA-free protease inhibitor mixture (Roche)] were added and the mixture was incubated for 15 min at 22° C. to allow pre-binding of the test compounds to the enzyme before the start of the kinase reaction. Then the kinase reaction was started by the addition of 3 μl of a solution of adenosine-tri-phosphate (ATP, 16.7 μM=>final conc. in the 5 μl assay volume is 10 μM) and substrate (1.67 μM=>final conc. in the 5 μl assay volume is 1 μM) in assay buffer and the resulting mixture was incubated for a reaction time of 60 min at 22° C. The concentration of Bub1 was adjusted depending of the activity of the enzyme lot and was chosen appropriate to have the assay in the linear range, typical concentrations were in the range of 200 ng/ml. The reaction was stopped by the addition of 5 μl of a solution of TR-FRET detection reagents (0.2 μM streptavidine-XL665 [Cisbio Bioassays, Codolet, France] and 1 nM anti-phosho-Serine antibody [Merck Millipore, cat. #35-001] and 0.4 nM LANCE EU-W1024 labeled anti-mouse IgG antibody [Perkin-Elmer, product no. AD0077, as an alternative a Terbium-cryptate-labeled anti-mouse IgG antibody from Cisbio Bioassays can be used]) in an aqueous EDTA-solution (50 mM EDTA, 0.2% (w/v) bovine serum albumin in 100 mM HEPES pH 7.5).
The resulting mixture was incubated 1 h at 22° C. to allow the formation of complex between the phosphorylated biotinylated peptide and the detection reagents. Subsequently the amount of phosphorylated substrate was evaluated by measurement of the resonance energy transfer from the Eu-chelate to the streptavidine-XL. Therefore, the fluorescence emissions at 620 nm and 665 nm after excitation at 350 nm was measured in a TR-FRET reader, e.g. a Rubystar or Pherastar (both from BMG Labtechnologies, Offenburg, Germany) or a Viewlux (Perkin-Elmer). The ratio of the emissions at 665 nm and at […] was taken as the measure for the amount of phosphorylated substrate. The data were normalised (enzyme reaction without inhibitor=0% inhibition, all other assay components but no enzyme=100% inhibition).
For orientation: In TR-FRET formats the signal depends on donor and acceptor labels being close together.

As for `CCc1ccccc1NC(=O)c1c(C)nsc1Nc1cnccn1` [Example 1, N-(2-Ethylphenyl)-3-methyl-5-(pyrazin-2-ylamino)-1,2-thiazole-4-carboxamide], the IC50 was 1.8 µM in test [1] and above 20 µM on human Bub1. As for `CCc1ccccc1NC(=O)c1c(C)nsc1Nc1ccnc(C#N)n1` [Example 6, 5-[(2-Cyanopyrimidin-4-yl)amino]-N-(2-ethylphenyl)-3-methyl-1,2-thiazole-4-carboxamide], the IC50 in test [1] was 0.68 µM; on human Bub1, above 20 µM. For `CCc1ccccc1NC(=O)c1c(C)nsc1Nc1ccc(C#N)cn1` [Example 7, 5-[(5-Cyanopyridin-2-yl)amino]-N-(2-ethylphenyl)-3-methyl-1,2-thiazole-4-carboxamide], the values for the IC50 (in test [1]; on human Bub1) were 0.83 µM and above 20 µM, respectively.

As to `CCc1ccccc1NC(=O)c1c(C)nsc1Nc1ncccc1C#N` [Example 8, 5-[(3-Cyanopyridin-2-yl)amino]-N-(2-ethylphenyl)-3-methyl-1,2-thiazole-4-carboxamide], the IC50 was 4.1 µM in test [1] and above 20 µM on human Bub1. Take `CCc1ccccc1NC(=O)c1c(C)nsc1Nc1cc(-n2ccnc2)ncn1` [Example 9, N-(2-Ethylphenyl)-5-{[6-(1H-imidazol-1-yl)pyrimidin-4-yl]amino}-3-methyl-1,2-thiazole-4-carboxamide]: the IC50 in test [1] was 1.3 µM; on human Bub1 it was above 20 µM. For `CCc1ccccc1NC(=O)c1c(C)nsc1Nc1ncnc2ccccc12` [Example 10, N-(2-Ethylphenyl)-3-methyl-5-(quinazolin-4-ylamino)-1,2-thiazole-4-carboxamide] the same measures were 6.5 µM and above 20 µM.

For the compound `CCc1ccccc1NC(=O)c1c(C)nsc1Nc1nc2ccccc2o1` [Example 11, 5-(1,3-Benzoxazol-2-ylamino)-N-(2-ethylphenyl)-3-methyl-1,2-thiazole-4-carboxamide], the IC50 is 1.8 µM in test [1] and 3.8 µM on human Bub1. For `CCc1ccccc1NC(=O)c1c(C)nsc1Nc1ncnc2sccc12` [Example 12, N-(2-Ethylphenyl)-3-methyl-5-(thieno[2,3-d]pyrimidin-4-ylamino)-1,2-thiazole-4-carboxamide] the same measures were 2 µM and above 20 µM. `CCc1ccccc1NC(=O)c1c(C)nsc1Nc1ncnc2ccsc12` [Example 13, N-(2-Ethylphenyl)-3-methyl-5-(thieno[3,2-d]pyrimidin-4-ylamino)-1,2-thiazole-4-carboxamide]: the values for the IC50 (in test [1]; at human Bub1) were 0.59 µM and above 20 µM, respectively.

Turning to `CCc1ccccc1NC(=O)c1c(C)nsc1Nc1nc2ccccc2s1` [Example 14, 5-(1,3-Benzothiazol-2-ylamino)-N-(2-ethylphenyl)-3-methyl-1,2-thiazole-4-carboxamide], the IC50 in test [1] stood at 0.35 µM; on human Bub1 it was 8.59 µM. For `CCc1ccccc1NC(=O)c1c(C)nsc1Nc1cc(NC)ncn1` [Example 15, N-(2-Ethylphenyl)-3-methyl-5-{[6-(methylamino)pyrimidin-4-yl]amino}-1,2-thiazole-4-carboxamide] the same measures were 16 µM and above 20 µM.

In the case of `CCc1ccccc1NC(=O)c1c(C)nsc1Nc1nccc(OC)n1` [Example 16, N-(2-Ethylphenyl)-5-[(4-methoxypyrimidin-2-yl)amino]-3-methyl-1,2-thiazole-4-carboxamide], the figures for the IC50 (in test [1]; on human Bub1) were 9.8 µM and above 20 µM, respectively.

As for `CCc1ccnc(Nc2snc(C)c2C(=O)Nc2ccccc2CC)n1` [Example 17, N-(2-Ethylphenyl)-5-[(4-ethylpyrimidin-2-yl)amino]-3-methyl-1,2-thiazole-4-carboxamide], the IC50 in test [1] is 6 µM; at human Bub1, above 20 µM. On the same counts, the results for `CCc1ccccc1NC(=O)c1c(C)nsc1Nc1cc(C(F)(F)F)ccn1` [Example 18, N-(2-Ethylphenyl)-3-methyl-5-{[4-(trifluoromethyl)pyridin-2-yl]amino}-1,2-thiazole-4-carboxamide] are 0.15 µM and above 20 µM.

As for `CCc1ccccc1NC(=O)c1c(C)nsc1Nc1cnc2ccccc2n1` [Example 19, N-(2-Ethylphenyl)-3-methyl-5-(quinoxalin-2-ylamino)-1,2-thiazole-4-carboxamide], the results for the IC50 (in test [1]; on human Bub1) were 0.051 µM and above 20 µM, respectively. On the same counts, the results for `CCc1ccccc1NC(=O)c1c(C)nsc1Nc1cnc2cc(F)ccc2n1` [Example 20, N-(2-Ethylphenyl)-5-[(6-fluoroquinoxalin-2-yl)amino]-3-methyl-1,2-thiazole-4-carboxamide] are 0.34 µM and above 20 µM. `CCc1ccccc1NC(=O)c1c(C)nsc1Nc1nc2ccccc2nc1C` [Example 21, N-(2-Ethylphenyl)-3-methyl-5-[(3-methylquinoxalin-2-yl)amino]-1,2-thiazole-4-carboxamide]: the values for the IC50 (in test [1]; at human Bub1) were 0.28 µM and above 20 µM, respectively. Consider `COc1ccc(NC(=O)c2c(C)nsc2Nc2ncccc2C#N)cn1` [Example 36, 5-[(3-Cyanopyridin-2-yl)amino]-N-(6-methoxypyridin-3-yl)-3-methyl-1,2-thiazole-4-carboxamide], for which the IC50 in test [1] came out at 1.6 µM. The same measure, in the same setting: for `Cc1nsc(Nc2cc(C#N)ccn2)c1C(=O)Nc1ccc(Oc2ccc(F)cc2F)nc1` [Example 114, 5-[(4-Cyanopyridin-2-yl)amino]-N-[6-(2,4-difluorophenoxy)pyridin-3-yl]-3-methyl-1,2-thiazole-4-carboxamide] the value was 0.031 µM.

Values taken from patent publication US9682995B2, “Amino-substituted isothiazoles” (BAYER PHARMA AKTIENGESELLSCHAFT, priority 2013, dated 2017).
